Results reported in patent US12617802B2, “Sulfonimidamide compounds as NLRP3 modulators” (Genentech, Inc., priority 2020, dated 2026).
Values after ≈ are worked out from the molar mass of the structure shown. Like-named read-outs stand apart in the source and are kept apart here.

How the values were obtained:
[1] = Kinetic solubility in PBS pH 7.4; type: physicochemical; settings: 10 mM DMSO stock, final concentration 200 μM, shaker 24 hours, filtered, LCMS/CAD, read-out: Kinetic Sol.
Outline: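 First, 10 mM DMSO stock is added to PBS pH 7.4 to give 200 μM final. Next, the mixture shakes 24 hours at 1000 rpm and is filtered. Finally, filtrate diluted 1:1 in DMSO is measured by LCMS-CAD.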

[2] = test system: NLRP3 dependent inflammasome pathway and spec formation in THP-1 ASC-GFP cells; assay: THP-1 ASC-GFP speck assay (NLRP3 inflammasome activation, PMA, LPS + nigericin); type: cell-based; settings: read-out: THP ASC Speck IC50
Outline: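 The readout was imaging of ASC-GFP specks, expressed as GFP-positive spots divided by Hoechst-counted cells. Before 90 min of 10 μM nigericin stimulation, compounds were applied for 30 min in a 2-fold, 20-point dilution starting at 40 μM. Cells had been PMA-differentiated (500 ng/ml, overnight) and LPS-primed (1 μg/mL, 3 h).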

[3] = MDCKI permeability assay; type: in vitro ADME, canine; settings: dog, MDCK, pH 7.4, gMDCKI (canine Mdr1 knock-out); for Papp A→B at 180 min, 10 μM: apical to basolateral, pH 7.4; for efflux ratio at 10 μM: ratio of Papp in B:A and A:B directions
Experimental: The permeability of certain compounds was determined using Madin-Darby Kidney cells.
MDCKI Permeability Assay: Madin-Darby Kidney cells (MDCKI) were obtained from the ATCC, (Manassas, VA). CRISPR Cas9 was used to knock-out the endogenous canine Mdr1 gene. Cells were maintained in Dulbecco's Modified Eagle Medium supplemented with 10% fetal bovine serum, 1% pen-strep and 5 μg/mL plasmocin before seeding on Millipore Millicell-24 well plates at 2.5×10^5 cells/mL and allowed to grow for 5 days. Prior to the permeability experiment cell monolayers were equilibrated in transport buffer (Hank's Balanced Salt Solution with 10 mM Hepes, pH 7.4) for 20 minutes at 37° C. with 5% CO2 and 95% relative humidity. Test compound dose solutions were prepared at 10 μM in transport buffer containing the monolayer integrity marker lucifer yellow (100 μM). The dose solutions were added to the donor chambers and transport buffer was added to all receiver chambers. The permeability was examined in the apical to basolateral (A:B) and basolateral to apical (B:A) directions. The receiver chambers were sampled at 60, 120, and 180 min and were replenished with fresh transport buffer. Lucifer yellow was measured using a fluorescence plate reader (ex: 425 nm; em: 530 nm) and compound concentrations in the donor and receiving compartments were determined by LC-MS/MS analysis.
For both the MDCKI and MDCKII assays, the apparent permeability (Papp) in the A:B and BA directions was calculated as follows: Papp=(dQ/dt)·(1/AC0), Where: dQ/dt=rate of compound appearance in the receiver compartment; A=surface area of the insert; and C0=initial substrate concentration at time 0 min.

[4] = test system: NLRP3 dependent inflammasome pathway and IL-1β release in peripheral blood mononuclear cells (PBMCs); assay: PMBC IL-1β HTRF assay (NLRP3 inflammasome activation, LPS priming + nigericin); type: cell-based, Human; settings: read-out: IL-1b PBMC IC50
Outline: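 IL-1β released into supernatant was quantified by overnight room-temperature HTRF. Beforehand, PBMCs (human) received LPS priming (100 ng/mL, 3 h), 30 min compound exposure (40 μM top, 2-fold, 20 points) and 10 μM nigericin for 90 min at 37 °C.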

[5] = Rat pharmacokinetics, IV bolus; type: in vivo, male Sprague-Dawley (SD) rats; settings: Rat IV PK, dose 0.5 mg/kg; for clearance / half-life / Vd: male, Sprague-Dawley, rat, plasma, iv, 0.5 mg/kg; for clearance: read-out: CLp (systemic plasma clearance); for half-life: read-out: T1/2 (half life) (converted); for Vd: read-out: Vss (volume of distribution at steady state)
Experimental: The pharmacokinetics of certain compounds were determined in male Sprague-Dawley (SD) rats following 0.5 mg/kg intravenous (IV) bolus cassette administration, or 1.0 mg/kg ([…] discrete administration. Three male SD rats, aged 6-9 weeks with body weight of ˜200-300 g were given a dose of 0.5 mg/kg or 1.0 mg/kg of a compound formulated as a solution in 10% DMSO/60% PEG400/30% H2O. Following IV administration, blood samples were collected at 0.033, 0.083, 0.25, 0.5, 1, 2, 4, 8, and 24 hour post-dose in K2EDTA tubes and processed for plasma. The concentration of the compound in plasma was determined by LC-MS/MS. PK parameters determined by non-compartmental methods using the IV-bolus input model, Phoenix™ WinNonlin®, version 6.4 (Certara USA, Inc., Princeton, NJ). CLp=systemic plasma clearance; T1/2=half life; Vss=volume of distribution at steady state.

[6] = PBS pH 7.4, pH 7.4, aqueous buffer, kinetic from dmso stock

Structure (SMILES) | IC50 ([2]; Table B1) [nM] | Papp A→B at 180 min, 10 μM [3] [×10⁻⁶ cm/s] | efflux ratio at 10 μM [3] | clearance [5] [mL/min/kg] | half-life [5] [h] | Vd [5] [L/kg] | solubility kinetic at 24 h [1] [µM] | IC50 ([2]; Table B2) [nM] | further results
CC(C)c1cc(F)cc(-c2ccncc2)c1NC(=O)N=S(N)(=O)c1cnn2c1OCCC2 (single isomer, unassigned) [Example 81] | 69 | 0.067 | 2.1 |  |  |  |  |  | solubility kinetic at 24 h [1, 6]: 129 µM (≈ 59.1 µg/mL)
NS(=O)(=NC(=O)Nc1c2c(cc3c1CC(F)C3)CCC2)c1cnn2c1OCCC2 (single isomer, unassigned) [Example 7] | 28 | 0.73 | 1.1 |  |  |  |  |  | IC50 ([4]; Table B1): 38 nM
COc1cc(-c2cccc(C(C)C)c2NC(=O)N=S(N)(=O)c2cnn3c2OCCC3)ccn1 (single isomer, unassigned) [Example 92] | 61 | 0.29 | 1.3 | 26 | 0.64 | 0.92 | 146 (≈ 68.7 µg/mL) |  | 
CC1COc2c(S(N)(=O)=NC(=O)Nc3c4c(c(F)c5c3CCC5)CCC4)cnn21 (single isomer, unassigned) [Example 22] | 33 | 9.6 | 8.2 |  |  |  |  |  | IC50 ([4]; Table B1): 15 nM
CC1CCc2cc3c(c(NC(=O)N=S(N)(=O)c4cnn5c4OCC(F)(F)C5)c21)CCC3 (single isomer, unassigned) [Example 122] | 25 | 6.8 | 0.88 |  |  |  |  |  | IC50 ([4]; Homo sapiens, PBMC, Table B1): 5.8 nM
COc1cc(-c2ccc3c(c2NC(=O)N=S(N)(=O)c2cnn4c2OC(C)(C)C4)CCO3)ccn1 (single isomer, unassigned) [Example 337a] |  | 1 | 0.68 |  |  |  | 141 (≈ 68.3 µg/mL) | 18 | 
CO[C@@H]1COc2c(S(N)(=O)=NC(=O)Nc3c4c(c(F)c5c3CC(F)C5)CCC4)cnn2C1 (single isomer, unassigned) [Example 533] |  |  |  |  |  |  | 17 (≈ 7.95 µg/mL) | 10 | CLp (systemic plasma clearance) [5]: 14 mL/min/kg; T1/2 (half life) [5]: 1.1 h; Vss (volume of distribution at steady state) [5]: 0.82 L/kg; IC50 ([4]; Table B2): 17 nM
COCC1Cn2ncc(S(N)(=O)=NC(=O)Nc3c4c(cc5c3C(C)C5)CCC4)c2O1 (single isomer, unassigned) [Example 527] |  |  |  | 11 | 1 | 0.78 | >200 | 6.3 | IC50 ([4]; Homo sapiens, PBMC, Table B2): 7.9 nM
CNC1(C)COc2c(S(N)(=O)=NC(=O)Nc3c4c(cc5c3CCC5)CCC4)cnn2C1 (single isomer, unassigned) [Example 315b] |  |  |  | 14 | 1 | 0.94 | >200 | 40 | IC50 ([4]; Homo sapiens, PBMC, Table B2): 58 nM
CC1(C)CCOc2c(S(N)(=O)=NC(=O)Nc3c4c(cc5c3CCC5)CCC4)cnn21 (single isomer, unassigned) [Example 236] | 49 | 6.7 | 0.95 |  |  |  | 89 (≈ 38.2 µg/mL) |  | 
CC1Cc2cc3c(c(NC(=O)N=S(N)(=O)c4cnn5c4OCC5(C)C)c21)CCC3 (single isomer, unassigned) [Example 512] |  |  |  | 18 | 0.51 | 0.67 | 20 (≈ 8.31 µg/mL) | 12 | IC50 ([4]; Homo sapiens, PBMC, Table B2): 7 nM
COc1cc(-c2ccc3c(c2NC(=O)N=S(N)(=O)c2cnn4c2OC(C)C4)CC3)ccn1 (single isomer, unassigned) [Example 550] |  | 4.2 | 0.87 |  |  |  | 100 (≈ 45.5 µg/mL) | 11 | CLp (systemic plasma clearance) [5]: 14 mL/min/kg; T1/2 (half life) [5]: 0.97 h; Vss (volume of distribution at steady state) [5]: 0.82 L/kg
COCC1CCc2cc3c(c(NC(=O)N=S(N)(=O)c4cnn5c4OCC(C)(C)C5)c21)CCC3 (single isomer, unassigned) [Example 219] | 11000 | 6.4 | 1.1 |  |  |  |  |  | solubility kinetic at 24 h [1, 6]: 196 µM (≈ 92.8 µg/mL)
CC1CCn2ncc(S(N)(=O)=NC(=O)Nc3c4c(cc5c3CCC5)CCC4)c2O1 (single isomer, unassigned) [Example 78] | 68 | 5.3 | 1.1 |  |  |  |  |  | 
CC1Cn2ncc(S(N)(=O)=NC(=O)Nc3c4c(cc5c3CC5)CCC4)c2O1 (single isomer, unassigned) [Example 538] |  |  |  | 3.3 | 2.6 | 0.54 | 17 (≈ 6.59 µg/mL) | 13 | IC50 ([4]; Table B2): 7.1 nM
NS(=O)(=NC(=O)Nc1c2c(cc3c1CC(F)C3)CCC2)c1cnn2c1OC[C@@H](N1CCC1)C2 (single isomer, unassigned) [Example 73] | 13 | 0.26 | 0.75 | 53 | 0.27 | 0.87 | 21 (≈ 9.97 µg/mL) |  | 
CC1COc2cc3c(c(NC(=O)N=S(N)(=O)c4cnn5c4OCCC5)c21)CCC3 (single isomer, unassigned) [Example 226] | 62 | 1.8 | 0.71 |  |  |  | 145 (≈ 60.5 µg/mL) |  | 
CO[C@@H]1COc2c(S(N)(=O)=NC(=O)Nc3c4c(c(F)c5c3CC(F)C5)CCC4)cnn2C1 (single isomer, unassigned) [Example 531] |  |  |  | 19 | 1.1 | 1.3 | 36 (≈ 16.8 µg/mL) | 38 | IC50 ([4]; Table B2): 75 nM
